Tested on: MUC5AC transcription
Assay: MUC5AC promoter-luciferase reporter assay (pMUC5AC3.7luc) in human epithelial cells
Format: cell-based
Description: The luciferase assay was performed as follows: expression plasmids fp38α(AF) and fp38β(AF) were previously described in Shuto, et al. (2001) Proc. Natl, Acad. Sci. U.S.A. 98, pages 8774-9. The expression plasmids p110, p85α, Akt KD, and Akt WT were provided by D. Stokoe (University of California, San Francisco). The reporter construct MUC5AC contained 3.7-kb 5′-flanking region of the human MUC5AC mucin gene in a luciferase reporter vector pGL3 (Li, et al. 1998, J. Biol. Chem. 273, 68126820). Transient transfections of cells were performed in triplicate with Trans IT-LT1 (Panvera, Madison, WT) following the manufacturer's instructions. Forty-two hours after transfection, the cells were treated with NTHi for 4 h and then harvested for use in the luciferase assay. For experiments with inhibitors, HM3 cells stably transfected with MUC5AC-luciferase plasmid were pretreated with inhibitors for 1-2 h, then treated with NTHi for 4 h and harvested for luciferase assays. Luciferase assays were performed on a Monolight 3010 luminometer for 15 s (Analytical Luminescence, San Diego, Calif.). The NTHi-dependent fold induction was calculated relative to the luciferase light units obtained in the absence of NTHi treatment. The normalized luciferase activity was thus expressed as relative luciferase activity (fold induction).

Molecule | effect on MUC5AC transcription induced by LPS from S. typhimurium (LPS pretreated with various concentrations of polymyxin B 10 min at 4° C., HM3 pMUC5AC3.7luc cells, 4 h) | effect on MUC5AC transcription induced by NTHi soluble cytoplasmic fraction (SCF pretreated with various concentrations of polymyxin B for 10 min, HM3 pMUC5AC3.7luc cells) | effect on NTHi-induced MUC5AC transcription (luciferase activity) (HM3 cells stably transfected with pMUC5AC3.7luc, pretreated with inhibitor 1-2 h, then NTHi SCF 4 h) | effect on NTHi-induced MUC5AC transcription in cells already pretreated with wortmannin (HM3 cells stably transfected with pMUC5AC3.7luc, wortmannin pretreatment first)
Polymyxin B | significantly reduced MUC5AC transcription | no significant reduction in NTHi-induced MUC5AC transcription | – | –
C[S+]([O-])c1ccc(-c2nc(-c3ccncc3)c(-c3ccc(F)cc3)[nH]2)cc1 (stereo not shown) [SB203580] | – | – | inhibited MUC5AC induction in response to NTHi cytoplasmic proteins in a dose-dependent manner | still capable of inhibiting NTHi-induced MUC5AC transcription
